Reference: patent publication US8299097B2, “Methods for treating inflammatory disorders” (The Brigham and Women's Hospital, Inc., priority 2008, dated 2012)

What was measured:
P2Y12 receptors = assay: Competitive radioligand binding of [H^3]ADP to LAD2 cell membranes; parameters: species or system human
Procedure: (§1) FIG. 10. Competitive ligand binding assays. 10A. […] Specific binding (typically 50-75% of the total) was calculated by subtracting the amount of radiolabel that was insensitive to the selective P2Y12 receptor antagonist 2-MesAMP. Nonspecific binding was essentially identical in the membranes with and without P2Y12 receptor knockdown. The dose response for the LAD2 membranes are from a single experiment repeated four times with similar results. The binding on the LAD2 cells with P2Y12 knocked down was repeated twice. 10B. Specific binding of radiolabeled ADP (2000 nM) to membranes of LAD2 cells. […] Results are mean±SD from three separate experiments. 10C. Conversion of radiolabeled LTD4 to LTE4 as confirmed by HPLC (left). […] Results in a second experiment were similar 10D. Competitive binding of radiolabeled 2-MesADP to COS-7 cells transfected with the human P2Y12 construct.
Competitive radioligand binding assays were performed using [H^3]ADP (the known natural ligand of P2Y12 receptors) and unlabeled LTs as competitors. […] The membranes from the transfectants expressing the forward construct bound [P^33]2-MesADP, a selective P2Y12 receptor agonist.
[^3H] […] The converted product was extracted into 400 μl of methanol, evaporated in presence of nitrogen and diluted to the required concentration with the binding buffer for the binding assay. The conversion was confirmed by running an aliquot on high-performance reverse phase liquid chromatography. […] Briefly, cells were washed in PBS, resuspended in PBS supplemented with protease inhibitor cocktail and lysed by sonication for 5 min. The lysed cells were centrifuged at 100,000 Xg for 45 min and the microsomal pellet was resuspended in 1 ml PBS. Protein concentration was determined using Biorad Protein Assay Kit. 50 μg of membrane protein was incubated for 1 h at room temperature in 250 μl of 10 mM Hepes/KOH, pH 7.4, with various concentrations of radiolabeled ligand and cold competitor. Bound [^3H] was separated from free [^3H] by filtration through GF/C filters (Whatman) and washed twice with 10 mM Hepes/KOH, pH 7.4, containing 0.01% BSA. The residual membrane-associated [^3H] on the filter was determined in 2 ml scintillation fluid by beta counter (Perkin Elmer). For [^3H]ADP, specific binding was determined by subtracting the amount of [^3H] bound in the presence of 100 μM 2-MesADP from total binding.

[1] = Direct binding of [H^3]LTE4 to LAD2 cell membranes; parameters: species or system human
Procedure: as §1
Competitive radioligand binding assays were performed using [H^3]ADP (the known natural ligand of P2Y12 receptors) and unlabeled LTs as competitors. […]
[^3H] […] Protein concentration was determined using Biorad Protein Assay Kit. […] The residual membrane-associated [^3H] on the filter was determined in 2 ml scintillation fluid by beta counter (Perkin Elmer). For [^3H]ADP, specific binding was determined by subtracting the amount of [^3H] bound in the presence of 100 μM 2-MesADP from total binding.

Cysltr1/Cysltr2^−/− mice = assay: LTE4 amplification of pulmonary inflammation in mice lacking both CysLT1R and CysLT2R; assay type: in vivo, mouse
Procedure: (§2) FIG. 4. […] 4A. […] Clopidogrel (500 μg/ml) was added to the drinking water of the indicated groups of mice for 72 h before the first intranasal dose of LTs, and was maintained throughout the treatment. Results are mean±SEM from at least 9 mice in each group. The experiments were repeated three times with similar results. 4B. PAS stains (left column) from representative mice in the indicated groups showing the effect of clopidigrel on goblet cell metaplasia. Higher magnification images of H & E stains (right) from the same animals showing cellular characteristics of the bronchovascular infiltrates. 4C. Effect of clopidogrel administration on the steady-state expression of IL-13 and MUC5AC mRNA as determined by real-time PCR of whole lung RNA extracted 24 h after the last OVA challenge of the indicated groups. Data are mean±SEM from 4-5 mice/group from a single experiment. Results in a second experiment were similar 4D-4F. […] 4D. Total cell numbers (top), percentages of eosinophils (middle), and total numbers of eosinophils in BAL fluid recovered 24 h after the last challenge with OVA. 4E. Goblet cell metaplasia (top) and representative PAS stains (bottom) from wild-type and p2ry12^−/− mice subjected to the same protocol. 4E. Inflammation scores from the same mice. Data in 4D-4F are from 4 mice per group. […] Quantitative assessment of bronchovascular inflammation as determined by H & E stains. […]

p2ry12^−/− mice = assay: LTE4 amplification of pulmonary inflammation in p2ry12^−/− mice and C57BL/6 controls; assay type: in vivo, mouse
Procedure: as §2

CCCCC/C=C\C\C=C/C=C/C=C/[C@@H](SC[C@H](N)C(=O)O)[C@@H](O)CCCC(=O)O [LTE4]
specific ADP binding blocked (P2Y12 receptors; unlabeled LTE4 0.1 nM, mean±SEM, four experiments): 39±9% | specific ADP binding blocked (P2Y12 receptors; unlabeled LTE4 1 nM, mean±SEM, four experiments): 50±9% | specific ADP binding blocked (plateau) (P2Y12 receptors; unlabeled LTE4 1 μM, mean±SEM, four experiments): 60±7% | competition with labeled ADP, LTE4 compared with LTD4 (P2Y12 receptors; unlabeled competitors 10 μM): more efficacious than LTD4 | binding of [H^3]LTE4 to LAD2 cell membranes [1]: weakly bound | potentiation of OVA-induced BAL fluid eosinophilia, goblet cell metaplasia and inflammation (Cysltr1/Cysltr2^−/− mice): completely intact | potentiation of BAL fluid eosinophilia, goblet cell metaplasia and bronchovascular infiltration (p2ry12^−/− mice; WT C57BL/6 controls): potentiated | potentiation of BAL fluid eosinophilia, goblet cell metaplasia and bronchovascular infiltration (p2ry12^−/− mice; p2ry12^−/− mice): severely blunted
